Assay results from patent US7112586B2, “Substituted diamine derivatives useful as motilin antagonists” (Ortho-McNeil Pharmaceutical, Inc., priority 2000, dated 2006).

Target: T1, Motilin Receptor (Oryctolagus cuniculus, UniProt G1T803)
T1 construct: The muscle tissue was homogenized in 10 volumes of 50 mM Tris-Cl; from tissue; host or cells: rabbit colon smooth muscle, crude membrane homogenate
Assay: Motilin receptor binding, rabbit colon membranes, 125I porcine motilin
Design: Rabbit Colon % Inh / inhibition / % Inh (Rabbit colon): dose or concentration left out as unconfirmed
Conditions: rabbit colon membranes; for inhibition: read-out: Rabbit Colon % Inh; for IC50: read-out: Rabbit Colon IC50
Experimental: Rabbit colon was removed, dissected free from the mucosa and serosa, and diced into small pieces. The muscle tissue was homogenized in 10 volumes of 50 mM Tris-Cl, 10 mM MgCl2, 0.1 mg/ml bacitracin, and 0.25 mM Peflabloc, at pH 7.5 in a Polytron (29000 rpm, 4×15 seconds). The homogenate was centrifuged at 1000×g for 15 minutes and the supernatant discarded. The pellet was washed twice before being suspended in homogenizing buffer. The crude homogenate was resuspended through a 23 gauge needle before storing at −80° C. […] After 60 minutes at 30° C., the samples were cooled in ice, centrifuged in the cold at 13000×g for 1 minute. The pellet was washed twice with 1 ml of cold saline, the supernatant was aspirated, and the pellet at the bottom of the tube counted in a gamma counter. Non-specific binding was determined by the inclusion of 1 mM of unlabeled motilin. IC50 values were determined from Kaleidograph curves.

T1 sequence (G1T803 1-400): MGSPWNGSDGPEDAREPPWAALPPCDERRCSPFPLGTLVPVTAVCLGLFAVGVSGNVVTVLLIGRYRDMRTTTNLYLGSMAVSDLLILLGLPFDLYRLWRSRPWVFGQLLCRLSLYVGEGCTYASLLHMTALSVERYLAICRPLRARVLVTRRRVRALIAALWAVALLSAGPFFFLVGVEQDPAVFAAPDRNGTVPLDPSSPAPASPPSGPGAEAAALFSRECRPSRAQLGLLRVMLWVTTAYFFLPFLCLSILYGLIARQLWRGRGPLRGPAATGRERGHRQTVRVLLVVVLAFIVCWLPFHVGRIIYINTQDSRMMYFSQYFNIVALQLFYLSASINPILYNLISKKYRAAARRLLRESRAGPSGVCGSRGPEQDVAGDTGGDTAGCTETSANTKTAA

O=C(Nc1ccccc1)N(c1cccc(OCCN2CCOCC2)c1)C1CCC(CN(Cc2cccc(Cl)c2)C(=O)C(Cl)(Cl)Cl)C1 (centres unmarked) [compound 39]
inhibition: 4%

COc1cccc(CN(Cc2cccc(Cl)c2)C(=O)CCCC(=O)N(Cc2ccc(F)cc2)c2cccc(OCCN3CCOCC3)c2)c1 [compound 206]
inhibition: 60%
IC50: 0.77 µM

O=C(c1ccc(F)cc1)N(CC1CCCC(N2C(=O)c3ccccc3C2=O)C1)c1cccc(OCCN2CCOCC2)c1 (centres unmarked) [compound 257]
Rabbit Colon % Inh: 0%

O=C(c1ccc(F)cc1)N(CC1CCCC(N(Cc2ccccc2)C(=O)c2ccc3ccccc3c2)C1)c1cccc(OCCN2CCOCC2)c1 (centres unmarked) [compound 114]
Rabbit Colon % Inh: 49%

O=C(Nc1ccccc1)N(CC1CCCC(N(Cc2ccccc2)C(=O)CCc2ccccc2)C1)c1cccc(OCCN2CCOCC2)c1 (centres unmarked) [compound 43]
inhibition: 74%
IC50: 0.73 µM

Cc1ccc(S(=O)(=O)N(CCCC(=O)N(Cc2ccccc2)Cc2ccccc2)c2cccc(OCCN3CCOCC3)c2)cc1 [compound 24]
Rabbit Colon % Inh: 6%

O=C(CCCCN(C(=O)Nc1ccccc1)c1cccc(OCCN2CCOCC2)c1)N(Cc1ccccc1)Cc1ccccc1 [compound 26]
Rabbit Colon % Inh: 22%

O=C(Nc1ccccc1)N(CC1CCCC(N(Cc2cccc(Cl)c2)C(=O)c2cccc(O)c2)C1)c1cccc(OCCN2CCOCC2)c1 (centres unmarked) [compound 86]
Rabbit Colon % Inh: 16%

O=C(c1ccc(F)cc1)N(CC1CCCC(N(Cc2ccccc2)C(=O)c2cc(C(F)(F)F)cc(C(F)(F)F)c2)C1)c1cccc(OCCN2CCOCC2)c1 (centres unmarked) [compound 119]
Rabbit Colon % Inh: 22%

O=C([C@H](Cc1ccccc1)NC(=O)C(Cl)(Cl)Cl)N(Cc1ccc(F)cc1)c1cccc(OCCN2CCOCC2)c1 [compound 131]
Rabbit Colon % Inh: 19%

O=C(NC(c1ccccc1)c1ccccc1)c1cccc(CN(C(=O)c2ccc(F)cc2)c2cccc(OCCN3CCOCC3)c2)c1 [compound 137]
Rabbit Colon % Inh: 30%

O=C(NCCc1ccccc1)c1cccc(CN(C(=O)c2ccc(F)cc2)c2cccc(OCCN3CCOCC3)c2)c1 [compound 138]
inhibition: 36%

O=C(NC1CCCC(CN(C(=O)Nc2ccccc2)c2cccc(OCCN3CCOCC3)c2)C1)c1cc(C(F)(F)F)cc(C(F)(F)F)c1 (centres unmarked) [compound 74]
Rabbit Colon % Inh: 29%

O=C(Nc1ccccc1)N(CC1CCCC(N(Cc2ccccc2)C(=O)c2cc(C(F)(F)F)cc(C(F)(F)F)c2)C1)c1cccc(OCCN2CCOCC2)c1 (centres unmarked) [compound 82]
Rabbit Colon % Inh: 0%

CC(C)(C)CN(Cc1ccccc1)C(=O)CCCN(C(=O)c1ccc(F)cc1)c1cccc(OCCN2CCOCC2)c1 [compound 145]
Rabbit Colon % Inh: 35%

O=C(c1ccc(F)cc1)N(CC1CCCC(N(Cc2cccc(Cl)c2Cl)C(=O)C(Cl)(Cl)Cl)C1)c1cccc(OCCN2CCOCC2)c1 (centres unmarked) [compound 92]
Rabbit Colon % Inh: 80%

O=C(c1ccc(F)cc1)N(CC1CCCC(N(Cc2ccccc2)C(=O)c2ccco2)C1)c1cccc(OCCN2CCOCC2)c1 (centres unmarked) [compound 124]
inhibition: 70%
IC50: 0.904 µM

Cc1ccc(C(=O)N(CCCC(=O)N(Cc2ccccc2)Cc2ccccc2)c2cccc(OCCN3CCOCC3)c2)cc1 [compound 25]
Rabbit Colon % Inh: 23%

O=C(Nc1ccccc1)N(CC1CCCC(N(Cc2ccccc2)C(=O)c2ccc3ccccc3c2)C1)c1cccc(OCCN2CCOCC2)c1 (centres unmarked) [compound 44]
Rabbit Colon % Inh: 4%

CN1CCCC1CCOc1cccc(N(CC2CCCC(N(Cc3cccc(Cl)c3)C(=O)C(C)(C)C)C2)C(=O)c2ccc(F)cc2)c1 (racemic) [compound 235]
Rabbit Colon % Inh: 61%

Cc1ccc(S(=O)(=O)N(CCCC(=O)N(C)Cc2ccccc2)c2cccc(OCCN3CCOCC3)c2)cc1 [compound 16]
Rabbit Colon % Inh: 21%

CC1(C)CC(=O)N(C2CCCC(CN(C(=O)c3ccc(F)cc3)c3cccc(OCCN4CCOCC4)c3)C2)C(=O)C1 (centres unmarked) [compound 258]
Rabbit Colon % Inh: 34%

O=C(c1ccc(F)cc1)N(CC1CCCC(N(Cc2cccc(Cl)c2)C(=O)Cc2ccccc2)C1)c1cccc(OCCN2CCOCC2)c1 (centres unmarked) [compound 244]
Rabbit Colon % Inh: 42%

O=C(Nc1ccccc1)N(CC1CCCC(N(Cc2ccccc2)C(=O)C(c2ccccc2)c2ccccc2)C1)c1cccc(OCCN2CCOCC2)c1 (centres unmarked) [compound 46]
Rabbit Colon % Inh: 32%

O=C(CCCN(C(=O)c1ccc(F)cc1)c1cccc(OCCN2CCOCC2)c1)N1CCN(C(c2ccccc2)c2ccc(Cl)cc2)CC1 (centres unmarked) [compound 149]
Rabbit Colon % Inh: 27%

O=C(Nc1ccccc1)N(CC1CCCC(N(Cc2cccc(F)c2)C(=O)C(Cl)(Cl)Cl)C1)c1cccc(OCCN2CCOCC2)c1 (centres unmarked) [compound 58]
Rabbit Colon % Inh: 38%

O=C(Nc1ccccc1)N(CC1CCCC(N(Cc2ccccc2)C(=O)Nc2ccccc2)C1)c1cccc(OCCN2CCOCC2)c1 (centres unmarked) [compound 40]
inhibition: 11%

O=C(c1ccc(F)cc1)N(CC1CCCC(N(Cc2cccc(Cl)c2)C(=O)c2cc(C(F)(F)F)cc(C(F)(F)F)c2)C1)c1cccc(OCCN2CCOCC2)c1 (centres unmarked) [compound 107]
Rabbit Colon % Inh: 29%

CCN(Cc1ccc(C)cc1)C(=O)CCCN(c1cccc(OCCN2CCOCC2)c1)S(=O)(=O)c1ccc(C)cc1 [compound 31]
Rabbit Colon % Inh: 39%

COc1cccc(CN(C(=O)C(Cl)(Cl)Cl)C2CCCC(CN(C(=O)c3ccc(F)cc3)c3cccc(OCCN4CCOCC4)c3)C2)c1 (centres unmarked) [compound 97]
Rabbit Colon % Inh: 56%

O=C(c1ccc(F)cc1)N(CC1CCCC(N(Cc2ccccc2)C(=O)c2ccc(-c3ccccc3)cc2)C1)c1cccc(OCCN2CCOCC2)c1 (centres unmarked) [compound 118]
Rabbit Colon % Inh: 58%

O=C(Nc1ccccc1)N(CC1CCCC(N(Cc2cccc(Cl)c2)C(=O)CCc2ccccc2)C1)c1cccc(OCCN2CCOCC2)c1 (centres unmarked) [compound 53]
Rabbit Colon % Inh: 52%

O=C(c1ccc(F)cc1)N(CC1CCCC(NC(=O)C(Cl)(Cl)Cl)C1)c1cccc(OCCN2CCOCC2)c1 (centres unmarked) [compound 91]
Rabbit Colon % Inh: 36%

O=C(Nc1ccccc1)N(CC1CCCC(N(Cc2cccc(Cl)c2)C(=O)C(Cl)(Cl)Cl)C1)c1cccc(OCCN2CCCC2)c1 (centres unmarked) [compound 223]
inhibition: 100%
IC50: 0.041 µM

CCN(Cc1ccccc1)C(=O)CCCN(c1cccc(OCCN2CCOCC2)c1)S(=O)(=O)c1ccc(C)cc1 [compound 9]
Rabbit Colon % Inh: 27%

O=C(c1ccc(F)cc1)N(CC1CCCC(N(Cc2cccc(Cl)c2)C(=O)C(F)(F)F)C1)c1cccc(OCCN2CCOCC2)c1 (centres unmarked) [compound 108]
inhibition: 70%
IC50: 0.815 µM

O=C(Nc1ccccc1)N(CC1CCCC(N(Cc2cccc(Cl)c2)C(=O)c2ccc3ccccc3c2)C1)c1cccc(OCCN2CCOCC2)c1 (centres unmarked) [compound 54]
Rabbit Colon % Inh: 42%

COc1ccc(CN(C(=O)CCC(=O)N(CCc2ccccc2)Cc2ccccc2)c2cccc(OCCN3CCOCC3)c2)cc1 [compound 166]
Rabbit Colon % Inh: 23%

O=C1CCCN1CCOc1cccc(N(Cc2ccc(F)cc2)C(=O)CCCC(=O)N(CCc2ccccc2)Cc2ccccc2)c1 [compound 176]
Rabbit Colon % Inh: 32%
